# Measurements taken from PMC6001238, “Iterative Chemical Engineering of Vancomycin Leads to Novel Vancomycin Analogs With a High in Vitro Therapeutic Index” (Frontiers in Microbiology, 2018).
# Read-outs that look alike come from different tables or passages of the source.
# Legend:
# [1] = tested on: E. faecalis VSE 1; experiment: MIC, broth microdilution, vancomycin-sensitive E. faecalis (VSE 1); format: cell-based, Enterococcus faecalis
# Outline: (§1)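 Broth microdilution per CLSI; controls = ultrapure water, non-inoculated broth. One set: + vancomycin 10 μM final alongside test analogue/control drug.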
# [2] = tested on: E. faecalis VRE 6; experiment: MIC, broth microdilution, vancomycin-resistant E. faecalis VRE 6 (VanA); format: cell-based, Enterococcus faecalis
# Outline: as §1
# [3] = tested on: E. faecalis VRE 53; experiment: MIC, broth microdilution, vancomycin-resistant E. faecalis VRE 53 (VanA); format: cell-based, Enterococcus faecalis
# Outline: as §1
# [4] = tested on: E. faecalis VRE 29; experiment: MIC, broth microdilution, vancomycin-resistant E. faecalis VRE 29 (VanA); format: cell-based, Enterococcus faecalis
# Outline: as §1
# [5] = tested on: E. faecalis VRE 37; experiment: MIC, broth microdilution, vancomycin-resistant E. faecalis VRE 37 (VanA); format: cell-based, Enterococcus faecalis
# Outline: as §1
# [6] = tested on: Murine leukemia (L1210) cells; experiment: Cytostatic activity, L1210 cell proliferation; format: cell-based; settings: mean ± SD of three experiments; highest concentration tested 250 µM; 2 days; read-out: Toxicity (IC50) L1210
# Outline: (§2)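 Readout: Coulter cell number after drug exposure at 37°C. Durations differ by line (L1210 2 days; CEM 3 days; HeLa 4 days). Stock suspension 300,000–500,000 cells/mL, diluted by mixing with compound. Endpoint: IC50 vs negative control.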
# [7] = tested on: human T-lymphocyte (CEM) cells; experiment: Cytostatic activity, CEM cell proliferation; format: cell-based; settings: mean ± SD of three experiments; highest concentration tested 250 µM; 3 days; read-out: Toxicity (IC50) CEM
# Outline: as §2
# [8] = tested on: human cervix carcinoma (HeLa) cells; experiment: Cytostatic activity, HeLa cell proliferation; format: cell-based; settings: mean ± SD of three experiments; highest concentration tested 250 µM; 4 days; read-out: Toxicity (IC50) HeLa
# Outline: as §2
# [9] = tested on: L1210, CEM and HeLa cell lines; experiment: Cytostatic activity, average or summary over L1210, CEM and HeLa; format: cell-based
# Outline: as §2
# [10] = tested on: S. aureus VSSA (ATCC 6538); experiment: MIC, broth microdilution, vancomycin-sensitive S. aureus (VSSA/MSSA, ATCC 6538); format: cell-based, Staphylococcus aureus
# Outline: as §1
# [11] = tested on: S. aureus VISA/HIP5827; experiment: MIC, broth microdilution, vancomycin-intermediate S. aureus VISA HIP5827; format: cell-based, Staphylococcus aureus
# Outline: as §1
# [12] = tested on: S. aureus VRSA; experiment: MIC, broth microdilution, vancomycin-resistant S. aureus (VRSA); format: cell-based, Staphylococcus aureus
# Outline: as §1
# [13] = tested on: MRSA KS2; experiment: MIC, broth microdilution, MRSA KS2; format: cell-based, Staphylococcus aureus
# Outline: as §1
# [14] = tested on: MRSA KS6; experiment: MIC, broth microdilution, MRSA KS6; format: cell-based, Staphylococcus aureus
# Outline: as §1
# [15] = tested on: MRSA KS89; experiment: MIC, broth microdilution, MRSA KS89; format: cell-based, Staphylococcus aureus
# Outline: as §1
# [16] = tested on: MRSA KS1; experiment: MIC, broth microdilution, MRSA KS1; format: cell-based, Staphylococcus aureus
# Outline: as §1
# [17] = tested on: 33 clinical VRE isolates; experiment: MIC against a set of 33 clinical VRE isolates (range, MIC50, TI); format: cell-based, Enterococcus faecalis
# Outline: as §1
# [18] = tested on: 24 clinical MRSA isolates; experiment: MIC against a set of 24 clinical MRSA isolates (range, MIC50, TI); format: cell-based, Staphylococcus aureus
# Outline: as §1
# [19] = tested on: Clostridium difficile ATJ ribotype 014/20; experiment: MIC, plate drop assay, C. difficile ATJ ribotype 014/20; format: cell-based; settings: C. difficile ATJ ribotype 014/20
# Outline: (§3)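 Twofold dilution series of test compounds were spotted onto C. difficile lawns in 0.4% BHI agar containing added calcium and magnesium salts. After overnight anaerobic incubation at 37°C, growth inhibition was scored by spot clearing; triplicate runs, ultrapure water negative control.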
# [20] = tested on: Clostridium difficile AIU ribotype 027; experiment: MIC, plate drop assay, C. difficile AIU ribotype 027; format: cell-based; settings: for MIC-fold improvement vs. vancomycin: C. difficile AIU ribotype 027
# Outline: as §3
# [21] = tested on: VE 148 (VanB); experiment: MIC, VanB-type VRE strain VE 148; format: cell-based, Enterococcus; settings: VE 148, VanB; read-out: MIC
# Outline: as §1
# [22] = tested on: VE 149 (VanB); experiment: MIC, VanB-type VRE strain VE 149; format: cell-based, Enterococcus; settings: VE 149, VanB; read-out: MIC
# Outline: as §1
# [23] = tested on: VE 150 (VanB); experiment: MIC, VanB-type VRE strain VE 150; format: cell-based, Enterococcus; settings: VE 150, VanB; read-out: MIC
# Outline: as §1
# [24] = tested on: VE 152 (VanB); experiment: MIC, VanB-type VRE strain VE 152; format: cell-based, Enterococcus; settings: VE 152, VanB; read-out: MIC
# Outline: as §1
# [25] = tested on: VE 157 (VanB); experiment: MIC, VanB-type VRE strain VE 157; format: cell-based, Enterococcus; settings: VE 157, VanB; read-out: MIC
# Outline: as §1
# [26] = tested on: VE 82 (VanC1); experiment: MIC, VanC1-type VRE strain VE 82; format: cell-based, Enterococcus gallinarum; settings: VE 82, VanC1; read-out: MIC
# Outline: as §1
# [27] = tested on: MRSA; experiment: Minimum bactericidal concentration against MRSA; format: cell-based, Staphylococcus aureus
# Experimental: Plates were incubated overnight at 37°C and colony growth was inspected.
compound,measurement,setting,value
CN[C@H](CC(C)C)C(=O)N[C@H]1C(=O)N[C@@H](CC(N)=O)C(=O)N[C@H]2C(=O)N[C@H]3C(=O)N[C@H](C(=O)N[C@H](C(=O)NCC(=O)Nc4ccc5c(c4)Cc4ccccc4-5)c4cc(O)cc(O)c4-c4cc3ccc4O)[C@H](O)c3ccc(c(Cl)c3)Oc3cc2cc(c3O[C@@H]2O[C@H](CO)[C@@H](O)[C@H](O)[C@H]2O[C@H]2C[C@](C)(N)[C@H](O)[C@H](C)O2)Oc2ccc(cc2Cl)[C@H]1O [Vanc-42],MIC,"[1]; Enterococcus faecalis VSE 1 (vancomycin-sensitive), read-out: MIC",0.20 µM
same,MIC-fold improvement vs. vancomycin,"[1]; VSE 1, ratio of MIC of vancomycin and MIC of analogue",8
same,MIC,"[2]; Enterococcus faecalis VRE 6 (vancomycin-resistant), read-out: MIC",0.78 µM
same,MIC-fold improvement vs. vancomycin,"[2]; VRE 6, ratio of MIC of vancomycin and MIC of analogue",256
same,MIC,"[3]; Enterococcus faecalis VRE 53 (vancomycin-resistant), read-out: MIC",12.5 µM
same,MIC-fold improvement vs. vancomycin,"[3]; VRE 53, ratio of MIC of vancomycin and MIC of analogue",32
same,MIC,"[4]; Enterococcus faecalis VRE 29 (vancomycin-resistant), read-out: MIC",1.56 µM
same,MIC-fold improvement vs. vancomycin,"[4]; VRE 29, ratio of MIC of vancomycin and MIC of analogue",256
same,MIC,"[5]; Enterococcus faecalis VRE 37 (vancomycin-resistant), read-out: MIC",3.13 µM
same,MIC-fold improvement vs. vancomycin,"[5]; VRE 37, ratio of MIC of vancomycin and MIC of analogue",128
same,IC50,[6],177 ± 103 µM
same,IC50,[7],92 ± 3 µM
same,IC50,[8],> 250 µM
same,IC50,"[9]; average IC50 used for TI in Table S5, >250 entered as 250, read-out: IC50",173 µM
same,IC50,"[9]; average of L1210, CEM and HeLa, read-out: Toxicity (IC50) Average",173 µM
same,MIC,"[10]; Staphylococcus aureus VSSA, read-out: MIC",0.78 µM
same,MIC-fold improvement vs. vancomycin,"[10]; VSSA, ratio of MIC of vancomycin and MIC of analogue",1
same,MIC,"[11]; Staphylococcus aureus VISA/HIP5827, read-out: MIC",0.78 µM
same,MIC-fold improvement vs. vancomycin,"[11]; VISA/HIP5827, ratio of MIC of vancomycin and MIC of analogue",8
same,MIC,"[12]; Staphylococcus aureus VRSA, read-out: MIC",1.56 µM
same,MIC-fold improvement vs. vancomycin,"[12]; VRSA, ratio of MIC of vancomycin and MIC of analogue",64
same,MIC-fold improvement vs. vancomycin,"[13]; MRSA KS2, ratio of MIC of vancomycin and MIC of analogue",4
same,MIC,"[13]; Staphylococcus aureus MRSA KS2, read-out: MIC",0.20 µM
same,MIC-fold improvement vs. vancomycin,"[14]; MRSA KS6, ratio of MIC of vancomycin and MIC of analogue",4
same,MIC,"[14]; Staphylococcus aureus MRSA KS6, read-out: MIC",0.20 µM
same,MIC-fold improvement vs. vancomycin,"[15]; MRSA KS8, ratio of MIC of vancomycin and MIC of analogue",4
same,MIC,"[15]; Staphylococcus aureus MRSA KS8, read-out: MIC",0.20 µM
same,MIC-fold improvement vs. vancomycin,"[16]; MRSA KS1, ratio of MIC of vancomycin and MIC of analogue",2
same,MIC,"[16]; Staphylococcus aureus MRSA KS1, read-out: MIC",0.39 µM
same,MIC Range,[17]; 33 clinical VRE isolates,0.39 to 6.25 µM
same,TI (IC50/MIC50),"[17]; in vitro therapeutic index, VRE",111
same,MIC50,"[17]; median MIC, 33 clinical VRE isolates, read-out: MIC50",1.56 µM
same,MIC Range,[18]; 24 clinical MRSA isolates,0.10 to 0.39 µM
same,TI (IC50/MIC50),"[18]; in vitro therapeutic index, MRSA",865
same,MIC50,"[18]; median MIC, 24 clinical MRSA isolates, read-out: MIC50",0.20 µM
same,MIC-fold improvement vs. vancomycin,[19],up to 45
same,MIC-fold improvement vs. vancomycin,[19]; listed as Vanc- 42,22
same,MIC-fold improvement vs. vancomycin,[20],≤ 58
same,MIC,"[20]; C. difficile AIU ribotype 027, plate drop assay",0.78 µM
same,MIC-fold improvement vs. vancomycin,[20]; listed as Vanc- 42,58
same,MIC,[21],3.13 µM
same,MIC,[22],3.13 µM
same,MIC,[23],3.13 µM
same,MIC,[24],3.13 µM
same,MIC,[25],3.13 µM
same,MIC,[26],1.56 µM
same,MBC relative to MIC,[27],MBC equaling their MIC values
